Test system: B16-F10 cells
Test: Proteomic analysis of B16-F10 cells (DIA mass spectrometry)
Type: cell-based, mouse
Method: B16-F10 cells were treated with various concentrations of carboxylic acids following the same culture protocol used for melanin inhibition assays. After treatment, the cells were collected and submitted to Shanghai Zhongke Xinming Biotechnology Co., Ltd. (Shanghai, China) for proteomics analysis. The collected cells were lysed with an appropriate volume of SDT lysis buffer (4% SDS, 100 mM Tris-HCl, pH 7.6) to extract proteins. DTT was added to reduce disulfide bonds, followed by incubation at room temperature for 1 h. Subsequently, iodoacetamide was added, and the mixture was reacted in the dark at room temperature for 30 min. The proteins were then digested with trypsin overnight. The resulting peptide fragments were desalted using a C18 cartridge. After freeze-drying, the peptides were resuspended in 40 μL of 0.1% formic acid solution, and the peptide concentration was determined by measuring the absorbance at 280 nm. An appropriate amount of internal reference for targeted proteomics (iRT) standard peptides was added to each sample for data-independent acquisition (DIA) mass spectrometry analysis. Chromatographic separation was performed using a nanoflow Evosep One system. The separated samples were analyzed by DIA mass spectrometry using a timsTOF Pro mass spectrometer (Bruker Daltonics, Bremen, Germany). Detection was conducted in positive-ion mode, with MS and MS/MS scanning ranges set from 100 to 1700 m/z. MS2 data acquisition was performed in DIA mode, with four TIMS scan windows, each accumulating for 100 ms. In PASEF mode, the collision energy varied linearly with ion mobility (1/K0), ranging from 20 to 59 eV for ions with 1/K0 values between 0.85 and 1.30 Vs/cm^2. The DIA data were processed using Spectronaut 19 software with the following parameter settings: retention time prediction type set to dynamic iRT, interference correction on MS2 level enabled, cross-run normalization enabled, maximum missed cleavage sites set to 2, fixed modification set to Carbamidomethyl (C), and variable modifications set to Oxidation (M) and Acetyl (Protein N-term). All results were filtered with a Q-value cutoff of 0.01, corresponding to a false discovery rate (FDR) of less than 1%. The target protein set was annotated using Blast2GO (version BLASTP 2.8.0+). The process included four steps: sequence alignment (Blast), GO mapping, GO annotation, and additional annotation augmentation using InterProScan. Using the KOBAS 3.0 software, KEGG pathway annotation was performed on the target protein set. Fisher’s exact test was employed to compare the distribution of GO categories in the target protein set and the overall protein set, thereby conducting enrichment analysis of the GO annotations in the target protein set. The proteomics dataset generated in this study has been made publicly available through the PRIDE ProteomeXchange Consortium with the dataset identifier PXD061919.

SMILES: O=C(O)C(O)Cc1ccccc1 (stereo not shown) [3-phenyllactic acid]
- ATP8 protein fold change (6 mM vs control, Table S1): 0.4618
- Aanat protein fold change (6 mM vs control, Table S1): 2.208
- Acta1 protein fold change (6 mM vs control, Table S1): 2.921
- Adgrg1 protein fold change (6 mM vs control, Table S1): 0.4728
- Agtrap protein fold change (6 mM vs control, Table S1): 0.4687
- Antxr2 protein fold change (6 mM vs control, Table S1): 0.4747
- Aplp2 protein fold change (6 mM vs control, Table S1): 0.2246
- Apob protein fold change (6 mM vs control, Table S1): 0.4962
- Apoh protein fold change (6 mM vs control, Table S1): 0.4857
- App protein fold change (6 mM vs control, Table S1): 0.3729
- Arl6ip1 protein fold change (6 mM vs control, Table S1): 0.4901
- Bace2 protein fold change (6 mM vs control, Table S1): 0.4069
- Bcl9 protein fold change (6 mM vs control, Table S1): 2.336
- Bltp1 protein fold change (6 mM vs control, Table S1): 2.099
- Bst2 protein fold change (6 mM vs control, Table S1): 0.3949
- CUB domain-containing protein (Q3TD85) fold change (6 mM vs control, Table S1): 0.4924
- Cav2 protein fold change (6 mM vs control, Table S1): 0.4909
- Cdc42se1 protein fold change (6 mM vs control, Table S1): 0.3683
- Cisd2 protein fold change (6 mM vs control, Table S1): 0.4369
- Cks2 protein fold change (6 mM vs control, Table S1): 0.4644
- Ctns protein fold change (6 mM vs control, Table S1): 0.3087
- Cxne protein fold change (6 mM vs control, Table S1): 0.3753
- Cyp51a1 protein fold change (6 mM vs control, Table S1): 0.3449
- Ddit3 protein fold change (6 mM vs control, Table S1): 2.105
- Dgcr2 protein fold change (6 mM vs control, Table S1): 0.4147
- Dnajc19 protein fold change (6 mM vs control, Table S1): 0.3587
- E2f5 protein fold change (6 mM vs control, Table S1): 2.473
- Eng protein fold change (6 mM vs control, Table S1): 0.3635
- Entpd7 protein fold change (6 mM vs control, Table S1): 0.3998
- Epb41l4b protein fold change (6 mM vs control, Table S1): 2.181
- Fam174b protein fold change (6 mM vs control, Table S1): 0.4339
- Fau protein fold change (6 mM vs control, Table S1): 4.21
- Fosl2 protein fold change (6 mM vs control, Table S1): 5.488
- Fv4 protein fold change (6 mM vs control, Table S1): 0.4177
- Ginm1 protein fold change (6 mM vs control, Table S1): 0.3741
- Glmp protein fold change (6 mM vs control, Table S1): 0.4495
- H1-0 protein fold change (6 mM vs control, Table S1): 2.057
- H3c14 protein fold change (6 mM vs control, Table S1): 3.134
- Hbbt1 protein fold change (6 mM vs control, Table S1): 0.388
- Hmgcs1 protein fold change (6 mM vs control, Table S1): 0.3916
- Hspa13 protein fold change (6 mM vs control, Table S1): 0.4084
- Ifi205 protein fold change (6 mM vs control, Table S1): 2.571
- Ifitm2 protein fold change (6 mM vs control, Table S1): 0.4697
- Il10rb protein fold change (6 mM vs control, Table S1): 0.3763
- Itih3 protein fold change (6 mM vs control, Table S1): 0.3529
- Itm2b protein fold change (6 mM vs control, Table S1): 0.2428
- Itm2c protein fold change (6 mM vs control, Table S1): 0.3416
- Kbtbd2 protein fold change (6 mM vs control, Table S1): 0.4177
- Kcnj13 protein fold change (6 mM vs control, Table S1): 0.3629
- Laptm4a protein fold change (6 mM vs control, Table S1): 0.2076
- Laptm4b protein fold change (6 mM vs control, Table S1): 0.3669
- Ldha protein fold change (6 mM vs control, Table S1): 2.104
- Ldlr protein fold change (6 mM vs control, Table S1): 0.4018
- Mast4 protein fold change (6 mM vs control, Table S1): 2.12
- Met protein fold change (6 mM vs control, Table S1): 0.4986
- Mfap3 protein fold change (6 mM vs control, Table S1): 0.4088
- Mlana protein fold change (6 mM vs control, Table S1): 0.2524
- Mtfr2 protein fold change (6 mM vs control, Table S1): 0.4374
- Myl6 protein fold change (6 mM vs control, Table S1): 0.4951
- Ndfip1 protein fold change (6 mM vs control, Table S1): 0.3294
- Nfatc2 protein fold change (6 mM vs control, Table S1): 0.2366
- Nrp1 protein fold change (6 mM vs control, Table S1): 0.4865
- Nrp2 protein fold change (6 mM vs control, Table S1): 0.3408
- Pacsin2 protein fold change (6 mM vs control, Table S1): 0.3403
- Phyhd1 protein fold change (6 mM vs control, Table S1): 2.286
- Pmel protein fold change (6 mM vs control, Table S1): 0.4916
- Psap protein fold change (6 mM vs control, Table S1): 0.4703
- Ptprs protein fold change (6 mM vs control, Table S1): 0.4896
- Rad51ap1 protein fold change (6 mM vs control, Table S1): 0.4291
- Rnf220 protein fold change (6 mM vs control, Table S1): 0.4969
- Sdc1 protein fold change (6 mM vs control, Table S1): 0.244
- Sdcbp protein fold change (6 mM vs control, Table S1): 0.4883
- Serac1 protein fold change (6 mM vs control, Table S1): 2.052
- Sfpq protein fold change (6 mM vs control, Table S1): 2.482
- Sgce protein fold change (6 mM vs control, Table S1): 0.4392
- Slc2a6 protein fold change (6 mM vs control, Table S1): 0.4306
- Slc4a2 protein fold change (6 mM vs control, Table S1): 0.48
- Slc7a1 protein fold change (6 mM vs control, Table S1): 0.4712
- Slc24a5 protein fold change (6 mM vs control, Table S1): 0.4286
- Slc35b2 protein fold change (6 mM vs control, Table S1): 0.3476
- Slc38a2 protein fold change (6 mM vs control, Table S1): 0.3733
- Slc45a2 protein fold change (6 mM vs control, Table S1): 0.451
- Sparcl1 protein fold change (6 mM vs control, Table S1): 0.4926
- Syt4 protein fold change (6 mM vs control, Table S1): 0.3106
- Tagln2 protein fold change (6 mM vs control, Table S1): 0.2815
- Tgoln1 protein fold change (6 mM vs control, Table S1): 0.479
- Tial1 protein fold change (6 mM vs control, Table S1): 2.492
- Tmed1 protein fold change (6 mM vs control, Table S1): 0.4801
- Tmem14c protein fold change (6 mM vs control, Table S1): 4.332
- Tmem59 protein fold change (6 mM vs control, Table S1): 0.233
- Tmem176a protein fold change (6 mM vs control, Table S1): 0.2277
- Tmem176b protein fold change (6 mM vs control, Table S1): 0.171
- Trib3 protein fold change (6 mM vs control, Table S1): 2.531
- Try10 protein fold change (6 mM vs control, Table S1): 0.2906
- Tspan3 protein fold change (6 mM vs control, Table S1): 0.3162
- Tspan10 protein fold change (6 mM vs control, Table S1): 0.3282
- Tubb4a protein fold change (6 mM vs control, Table S1): 3.655
- Tyrp1 protein fold change (6 mM vs control, Table S1): 0.3578
- U2af1l4 protein fold change (6 mM vs control, Table S1): 2.0208
- Ube2j1 protein fold change (6 mM vs control, Table S1): 0.3514
- Ubl3 protein fold change (6 mM vs control, Table S1): 0.2819
- Zbtb3 protein fold change (6 mM vs control, Table S1): 2.269
- env protein fold change (6 mM vs control, Table S1): 0.4886
- il6st protein fold change (6 mM vs control, Table S1): 0.4117
- p53 (Fragment) (A6YM30) protein fold change (6 mM vs control, Table S1): 3.222
- regulation of MMP9 or PPARG (mouse B16-F10 cells, proteomic analysis): did not significantly downregulate
